Laboratory results: patent publication US20150320700A1, “Geranium oil and constituents thereof for treatment of neurodegenerative diseases” (The State of Israel, Ministry of Agriculture & Ru ral …, priority 2012, published 2015)
Structures can show the parent of a compound that is named as a salt.

Legend:
[1] = target: T1, human erythrocytes' acetyl cholinesterase (Homo sapiens, UniProt P22303); assay: acetyl cholinesterase fluorescent activity assay; format: biochemical; conditions: human erythrocytes' acetyl cholinesterase 25 mU/mL, FIGS. 2-4
T1 construct: from tissue; host or cells: human erythrocytes
Method: In this Example, Human erythrocytes acetyl cholinesterase (AChE) was incubated with different concentrations of geranium oil or each of its constituents.
(§1) In the results shown in FIG. 2, the different constituents were incubated with human erythrocytes' acetyl cholinesterase (25 mU/mL). The activity of acetyl cholinesterase was determined using a commercially available kit (acetyl cholinesterase fluorescent activity assay kit, Arbor assays).
Thus, inventors have tested the effect of both enantiomers on the enzymatic activity. […] The different enantiomers of citronellol were incubated with human erythrocytes' acetyl cholinesterase (25 mU/mL). The enzymatic activity was determined using a commercially available kit (acetyl cholinesterase fluorescent activity assay kit, Arbor assays).
as §1, with “In” for “In the results shown in”, “4,” for “2, the”, “constituents of geranium oil (Geraniol, Citronellol (+) and Citronellol formate)” for “constituents”

primary microglial cells = assay: peroxyl radical-induced oxidation of DCFH (ROS) in primary microglial cells; format: cell-based; conditions: microglial cells incubated 1 h with compound; ABAP 0.6 mM; FIG. 1
Method: Microglial cells were incubated for one h with (S)(−)citronellol (FIG. 1A) and (R)(+)citronellol (FIG. 1B). Primary cultures of microglial cells has been prepared according to Elmann et al., Journal of Functional Foods 2 (2010), pp. 18. As in Elmann et al. BMC Complementary and Alternative Medicine 2011, 11:98, the cultures of microglial cells were then preloaded with the non-fluorescent cell permeating compound, 2′7′-dichlorofluorescein diacetate (DCF-DA) for 30 min and washed with PBS, after which, 2,2′-Azobis(amidinopropane) (ABAP) (0.6 mM) was added and ROS levels were measured at the indicated time points. Each point on the graph represents mean±SEM of 2 experiments (n=8).

T1 sequence (P22303 32-617 isoform P22303-2 limits assumed): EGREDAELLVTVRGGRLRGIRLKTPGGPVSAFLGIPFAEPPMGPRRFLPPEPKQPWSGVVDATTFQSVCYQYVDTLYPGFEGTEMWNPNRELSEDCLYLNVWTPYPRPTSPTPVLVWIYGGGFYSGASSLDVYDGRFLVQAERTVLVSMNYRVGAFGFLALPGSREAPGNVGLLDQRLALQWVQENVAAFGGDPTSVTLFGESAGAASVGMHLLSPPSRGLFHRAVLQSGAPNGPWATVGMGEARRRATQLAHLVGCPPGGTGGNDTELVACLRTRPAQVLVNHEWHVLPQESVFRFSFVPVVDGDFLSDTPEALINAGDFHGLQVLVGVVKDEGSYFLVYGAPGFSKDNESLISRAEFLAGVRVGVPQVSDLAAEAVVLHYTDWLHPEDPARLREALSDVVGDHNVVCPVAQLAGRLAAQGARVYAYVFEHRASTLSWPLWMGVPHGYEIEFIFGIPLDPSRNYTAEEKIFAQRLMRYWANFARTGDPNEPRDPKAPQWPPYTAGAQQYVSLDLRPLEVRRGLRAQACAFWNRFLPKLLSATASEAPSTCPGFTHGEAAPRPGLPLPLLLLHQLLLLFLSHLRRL

SMILES | enzymatic activity of acetyl cholinesterase [1] | enzymatic activity of acetyl cholinesterase ([1]; listed as Citronellol (+)) | peroxyl radical-induced oxidation of DCFH (ROS levels) (primary microglial cells) | enzymatic activity of acetyl cholinesterase ([1]; listed as (S)(−)citronellol)
CC(C)=CCC[C@@H](C)CCO [(R)(+)citronellol, reference compound] | not (R)(+)citronellol could inhibit the enzymatic activity | none of the constituents geraniol, Citronellol (+) and citronellol formate could inhibit AChE activity | inhibit the peroxyl radical-induced oxidation of DCFH | –
CC(C)=CCC[C@H](C)CCO [(S)(−)-citronellol] | inhibited the enzymatic activity | – | inhibit the peroxyl radical-induced oxidation of DCFH | could inhibit the enzymatic activity
CC(C)=CCCC(C)CCOC=O (centres unmarked) [citronellol formate, reference compound] | none of the constituents geraniol, Citronellol (+) and citronellol formate could inhibit AChE activity | – | – | –
CC(C)=CCC/C(C)=C/CO [geraniol, reference compound] | none of the constituents geraniol, Citronellol (+) and citronellol formate could inhibit AChE activity | – | – | –
CC(C)[C@H]1CC[C@@H](C)CC1=O [isomenthone] | inhibited the enzymatic activity | – | – | –
C=CC(C)(O)CCC=C(C)C (centres unmarked) [linalool] | inhibited the enzymatic activity | – | – | –
CC(C)[C@@H]1CC[C@@H](C)CC1=O [menthone] | inhibited the enzymatic activity | – | – | –
